# Data reported in US7256042B2, “Process for making hepatocytes from pluripotent stem cells” (Geron Corporation, priority 2000, dated 2007).
# Like-named read-outs stand apart in the source and are kept apart here.
# Key:
# [1] = tested on: Human ES cell derived embryoid bodies; conditions: 5 mM Na butyrate, with or without 1% DMSO, day 7
# hES cells = assay: Phenotype of hepatocyte lineage cells made using sodium n-butyrate or Trichostatin A; format: cell-based, human; conditions: 5 mM sodium n-butyrate; 100 nM Trichostatin A
# Method: The effect of sodium butyrate was compared with other potential hepatocyte differentiation agents in a similar protocol. Embryoid bodies were cultured in suspension for 4 days, and then replated on plates coated with collagenase 1. The cells were then cultured in the presence of each compound for 6 days.
# At 75-100 nM, Trichostatin A appeared to both induce hepatocyte differentiation and select against survival of other cell types.
# H9 hES cells = assay: Differentiation of hES cells in feeder-free culture, morphology (Example 5); format: cell-based, human; conditions: feeder-free H9 hES cells on laminin, SR medium + 5 mM sodium butyrate, about six days after treatment
# Method: Undifferentiated hES colonies were passaged continuously in feeder-free conditions as follows. Cultures were incubated in 1 mg/mL collagenase for about 5 minutes at 37° C. The cells were then harvested by scraping the cells off the surface and dissociating them into small clumps. Cells were split at a 1:3 or 1:6 ratio, ˜55,000 cells/mL (17,000 cells/cm^2). The day after replating, colonies of undifferentiated cells could again be identified. Single cells in between the colonies were differentiated. Over the next few days, the undifferentiated cells were seen to proliferate and the colonies became large and compact. The differentiated cells in between the colonies also became more compact. The cells became confluent after 4-7 days of being fed daily with conditioned media. When the cells reached confluence, they were split once more.
# For this example, the H9 hES cells (p30+5) were maintained in feeder-free conditions for 30 days (5 passages) before differentiation. The undifferentiated cells were maintained on laminin and fed with MEF-conditioned medium, as described elsewhere in this disclosure. To induce differentiation, the conditioned medium was replaced with SR medium (without supplemental bFGF) containing 5 mM sodium butyrate.
compound,measurement,setting,value
CCCC(=O)[O-].[Na+] [Sodium n-butyrate],"Albumin, percentage of cells staining",[1]; Gelatin coated plates,56%
same,"CK18, percentage of cells staining",[1]; Gelatin coated plates,100%
same,"CK19, percentage of cells staining",[1]; Gelatin coated plates,100%
same,"Glycogen, percentage of cells staining",[1]; Gelatin coated plates,>60%
same,"α1-antitrypsin, percentage of cells staining",[1]; Gelatin coated plates,>90%
same,"α-fetoprotein, percentage of cells staining",[1]; Gelatin coated plates,0
same,"Albumin, percentage of cells staining",[1]; Matrigel coated plates,50%
same,"CK18, percentage of cells staining",[1]; Matrigel coated plates,100%
same,"CK19, percentage of cells staining",[1]; Matrigel coated plates,100%
same,"Glycogen, percentage of cells staining",[1]; Matrigel coated plates,>60%
same,"α1-antitrypsin, percentage of cells staining",[1]; Matrigel coated plates,>90%
same,"α-fetoprotein, percentage of cells staining",[1]; Matrigel coated plates,0
same,"CK18, positive cells",hES cells,100%
same,"CK19, positive cells",hES cells,100%
same,"Glycogen staining, positive cells",hES cells,>60%
same,"albumin, positive cells",hES cells,62%
same,"α1-antitrypsin, positive cells",hES cells,90%
same,"α-fetoprotein, positive cells",hES cells,0%
same,Cell morphology (in words),H9 hES cells,contained many patches of hepatocyte-like cells
